Literature values in US8778397B2, “Stabilized tolterodine tartrate formulations” (Mylan Inc., priority 2007, dated 2014).

- solubility in water: 12 g/1000 mL
Compound: Cc1ccc(O)c([C@H](CCN(C(C)C)C(C)C)c2ccccc2)c1 [Tolterodine]
